Data published in patent US10471059B2, “Compositions and methods of using tyrosine kinase inhibitors” (YALE UNIVERSITY, priority 2015, dated 2019).
Entries after “also recorded” stand apart in the source; their conditions may differ.

Key:
Ptpn11^D61G/+ mice [1] = test: Growth, facial dysmorphia and splenomegaly after postnatal dasatinib; assay type: in vivo; details: postnatal 0.1 mg/kg/day, NS mice
Excerpt: Differences within treatment groups were significant (p<0.001, Two-way ANOVA test) from 3-weeks to 8-weeks old. FIG. 19b is a graph showing body weight measured at P42. FIG. 19c is a graph showing body length measured at P42. FIG. 19d is a graph showing body weight measured at P56. […]. FIG. 19e is a graph showing body length measured at P56.
(n=10˜16 for each group; Two-way ANOVA test).
All data represent mean±SEM. *, p<0.05; ***, p<0.001.
(§1) Vehicle-injected mice served as control.

[2] = tested on: WT and Ptpn11^D61G/+ mice; test: Liver damage (H&E histology, serum ALT) after postnatal dasatinib; details: postnatal 0.1 mg/kg/day; wild type or NS mice; monohydrate
Description: All data present mean±SEM. *, p<0.05; ***, p<0.001. (n=7˜10 for each group; Two-way ANOVA test).
Histology—Heart, liver and spleen were isolated from vehicle- or dasatinib-treated wild type and NS mice. Tissues were fixed in 4% paraformaldehyde in phosphate-buffer saline (PBS), processed for paraffin sections and stained with hematoxylin and eosin (H&E) or Masson's Trichrome. Tissue images were obtained under bright field microscopy (Olympus BX51, Yale Liver Center).

Ptpn11^D61G/+ mice [3] = test: Quantitative RT-PCR of heart RNA, NS mice, postnatal dasatinib; assay type: in vivo; details: P56
Description: FIG. 15, comprising FIG. 15a-15j, is a panel of images showing cardiomyopathy and cardiac fibrosis in Ptpn11^D61G/+ mice rescued by dasatinib. […] FIG. 15e is a graph showing relative expression of fibrosis marker gene, Col1a2. […] FIG. 15f is a graph showing relative expression of fibrosis marker gene, Col3a1. FIG. 15g is a graph showing relative expression of cardiac fetal gene, Myh6 (αMHC). FIG. 15h is a graph showing relative expression of cardiac fetal gene, Myh7 (βMHC). FIG. 15i is a graph showing relative expression of cardiac fetal gene, Anf. FIG. 15j is a graph showing relative expression of cardiac fetal gene, Bnp. The genes were measured by quantitative RT-PCR (n=6 for each group). […] (Two-way ANOVA test).
RNA Extraction and Quantitative Real-Time PCR Analysis—RNA was isolated from mice heart using an RNeasy kit (Qiagen, CA) according to the manufacturer's instructions. A total of 1 μg RNA was reverse transcribed to generate cDNA using a reverse transcriptase PCR kit (Applied Biosystems, CA). Real-time quantitative PCR was carried out in triplicate using the Applied Biosystems 7500 Fast real-time PCR system and SYBR green gene expression master mix with following primer pairs.
All relative gene expression levels were analyzed using the ΔCT method and normalized to 18S rRNA expression.

[4] = tested on: cardiomyocytes isolated from the heart of WT and Ptpn11^D61G/+ mice; test: Ca2+ excitation-contraction coupling of cardiomyocytes isolated from treated mice; assay type: in vivo
Description: as §1
Enzymatic Digestion of Cardiac Tissue for Single-Cell Analysis—Cardiomyocytes from 8 week old mice were isolated by a Langendorff procedure, modified from Xianghua Xu, et al. J Vis Exp. 2009; (28):1308. In brief, the hearts were quickly excised and cannulated to a Langendorff apparatus where they were perfused with 37° C. Ca^2+-free perfusion buffer (in 25 mM HEPES, 118 mM NaCl, 4.8 mM KCl, 2.0 mM KH2PO4, 2.55 mM MgSO4, 10 mM BDM and 10 mM Glucose). To digest the tissue, the heart was perfused with buffer containing 0.5 mg/mL Liberase TH (Roche Applied Science, Penzberg, Germany). After ˜10 min, the heart was removed from the Langendorff apparatus and the right ventricle and atria removed. The left ventricle was isolated, cut into small pieces and digested further at 37° C. digestion solution with mechanical agitation for 5-10 min, and then gently triturated to liberate individual cells. The remaining tissue chunks were transferred to fresh digestion buffer and the process was repeated up to 6 times, or until all tissue was digested. Cells were removed from collagenase by gentle centrifugation and resuspended in several washing steps of buffer containing FBS and gradually reintroduced to calcium (0.05-1.1 mM) through step-wise additions of concentrated CaCl2 solution. Cells were allowed to rest for at least 1 h before imaging.
Cardiomyocyte Functional Characterization—Cardiomyocytes were imaged in Tyrodes solution ([…] NaCl: 140, KCl: 5.4, CaCl2:1.8, MgCl2:1, HEPES: 25 mM, glucose: 10 mM). Cell pellets were loaded for 15 minutes in the dark with Tyrodes supplemented with 2.5 μM Fura-2 AM complimented with pluronic acid (20% w/v), for calcium fluorescence imaging. After 15 minutes of loading, the cells were resuspended in fresh Tyrodes solution and allowed to settle until imaging. Cardiomyocyte Ca^2+ transients and unloaded shortening contractions were measured using an inverted microscope (Nikon Eclipse, Chiyoda, Tokyo) equipped with a temperature controlled perfusion bath (Cell MicroControls, Norfolk, Va.) under constant perfusion of 37° C. Tyrodes solution. Cells were field-stimulated at 1 Hz. Contractile events were imaged in real-time using a sarcomere length camera system (HVSL, Aurora Scientific, Ontario, Canada). Only rod-shaped cells with well-defined sarcomere striations that contracted when stimulated were selected for measurement. Sarcomere length was measured and recorded for ten consecutive beats and subsequently averaged across beats to produce a single waveform. Calcium transient measurements were recorded simultaneously using alternating excitation wavelengths of 340 and 380 nm generated at an overall rate of 100 Hz by a RatioMaster fluorescence system (PTI, Birmingham, N.J.). Fluorescence emission was filtered at a center wavelength of 510 nm and quantified to obtain responses to the alternating excitation wavelengths (F340 and F380, respectively). Ca^2+ transients were reported as the interpolated ratio of the two fluorescence intensities (F340/F380) at each time point. Data were recorded using a DAP5216a data acquisition system (Microstar Laboratories, Bellevue, Wash.) and processed using custom software written in MATLAB (MathWorks, Natick, Mass.). Peak sarcomere length shortening (Peak SL shortening), time to peak shortening (TTP), time to 50% re-lengthening (RT50), the magnitude of the calcium transient (Ca^2+ Rmag:Max F340/F380−Min F340/F380) and the rate of calcium decay, Tau (TauCa2+) were computed.

[5] = postnatal dasatinib, Ptpn11D61G/+ mice, P56, n = 162 cells, n = 3 mice, Mean ± SEM
[6] = postnatal dasatinib, WT mice, P56, n = 111 cells, n = 3 mice, Mean ± SEM

Cc1nc(Nc2ncc(C(=O)Nc3c(C)cccc3Cl)s2)cc(N2CCN(CCO)CC2)n1.O [Dasatinib, N-(2-chloro-6-methylphenyl)-2-[[6-[4-(2-hydroxyethyl)-1-piperazinyl]-2-methyl-4-pyrimidinyl]amino]-5-thiazole carboxamide monohydrate]
growth (body weight, body length) (Ptpn11^D61G/+ mice [1]): did not improve | facial dismorphism (Ptpn11^D61G/+ mice [1]; monohydrate): did not improve | splenomegaly (Ptpn11^D61G/+ mice [1]; monohydrate): did not improve; also recorded: did not rescue | liver damage [2]: no evidence of liver damage; also recorded: does not induce liver damage | Anp and Bnp mRNA expression (Ptpn11^D61G/+ mice [3]): completely rescued | MYH6 expression (Ptpn11^D61G/+ mice [3]): equivalent level of MYH6 expression in wild type and NS mice | MYH7 expression (Ptpn11^D61G/+ mice [3]): completely normalized | mRNA expression of fibrotic genes Col1a2 and Col3a1 (Ptpn11^D61G/+ mice [3]): reduced mRNA expression levels | Ca2+ signaling during excitation-contraction coupling ([4]; cardiomyocytes from dasatinib treated Ptpn11D61G/+ mice): normal | difference in relative calcium release (Rmag Ca2+) between NS and wild type cardiomyocytes ([4]; postnatal dasatinib, NS mice): substantially ameliorated | differences in fractional shortening of sarcomeres between NS and wild type cardiomyocytes ([4]; postnatal dasatinib, NS mice): completely restored | Ca^2+ TTP (Time to peak, F340/380) [4, 5]: 43.22 ± 0.90 ms | Diastolic Ca^2+ (MinF340/380) [4, 5]: 0.98 ± 0.01 | Peak Shortening [4, 5]: 6.59 ± 0.18 % | Rmag Ca^2+ (ΔF340/380) [4, 5]: 0.14 ± 0.01 | Shortening RT50 (Time from peak tension to 50% relaxation) [4, 5]: 37.02 ± 0.62 ms | Shortening RT90 (Time from peak tension to 90% relaxation) [4, 5]: 99.24 ± 3.23 ms | Shortening TTP (Time to peak) [4, 5]: 69.32 ± 0.79 ms | Systolic Ca^2+ (Max F340/380) [4, 5]: 1.12 ± 0.01 | Tau Ca^2+ [4, 5]: 116.52 ± 2.36 ms | Ca^2+ TTP (Time to peak, F340/380) [4, 6]: 42.75 ± 1.21 ms | Diastolic Ca^2+ (MinF340/380) [4, 6]: 0.94 ± 0.01 | Peak Shortening [4, 6]: 6.04 ± 0.23 % | Rmag Ca^2+ (ΔF340/380) [4, 6]: 0.11 ± 0.01 | Shortening RT50 (Time from peak tension to 50% relaxation) [4, 6]: 41.11 ± 0.96 ms | Shortening TTP (Time to peak) [4, 6]: 71.52 ± 0.90 ms | Systolic Ca^2+ (Max F340/380) [4, 6]: 1.06 ± 0.01 | Tau Ca^2+ [4, 6]: 105.85 ± 2.35 ms
